Assay results taken from ChEMBL document CHEMBL3751822, “C1C2-linker substituted 1,5-naphthyridine analogues of oxabicyclooctane-linked NBTIs as broad-spectrum antibacterial agents (part 7)” (Medchemcomm, 2015).
Converted amounts (≈) assume the structure as drawn.

Legend:
Streptococcus pneumoniae = assay: Antibacterial activity against Streptococcus pneumoniae IID553 by micro-broth dilution method; format: functional
Enterococcus faecium = assay: Antibacterial activity against Enterococcus faecium VanA by micro-broth dilution method; format: functional
Staphylococcus aureus [1] = assay: Antibacterial activity against methicillin resistant Staphylococcus aureus OIT971 by micro-broth dilution method; format: functional
Pseudomonas aeruginosa = assay: Antibacterial activity against Pseudomonas aeruginosa PAO1 by micro-broth dilution method; format: functional
Staphylococcus aureus [2] = assay: Ratio of MIC for quinolone-resistant Staphylococcus aureus MS5935 to MIC for quinolone-sensitive Staphylococcus aureus MS5935; format: functional
Acinetobacter baumannii = assay: Antibacterial activity against Acinetobacter baumannii IID876 by micro-broth dilution method; format: functional
Escherichia coli = assay: Antibacterial activity against Escherichia coli ATCC 25922 by micro-broth dilution method; format: functional
[3] = biological target: Voltage-gated inwardly rectifying potassium channel KCNH2 (Homo sapiens, UniProt Q12809); assay: Displacement of MK499 from human ERG
Staphylococcus aureus [4] = assay: Antibacterial activity against Staphylococcus aureus Smith by micro-broth dilution method; format: functional
Staphylococcus aureus [5] = assay: Antibacterial activity against Staphylococcus aureus infected in iv dosed mouse; format: functional
Staphylococcus aureus [6] = assay: Antibacterial activity against Staphylococcus aureus infected in po dosed mouse; format: functional
[7] = Streptococcus pneumoniae, IID553, read-out: MIC
[8] = Enterococcus faecium, VanA, read-out: MIC
[9] = Staphylococcus aureus, OIT971, read-out: MIC
[10] = Pseudomonas aeruginosa, PAO1, read-out: MIC
[11] = Acinetobacter baumannii, IID876, read-out: MIC
[12] = Escherichia coli, ATCC 25922, read-out: MIC
[13] = Staphylococcus aureus, Smith, read-out: MIC

Sequence of Voltage-gated inwardly rectifying potassium channel KCNH2 (Q12809 whole entry): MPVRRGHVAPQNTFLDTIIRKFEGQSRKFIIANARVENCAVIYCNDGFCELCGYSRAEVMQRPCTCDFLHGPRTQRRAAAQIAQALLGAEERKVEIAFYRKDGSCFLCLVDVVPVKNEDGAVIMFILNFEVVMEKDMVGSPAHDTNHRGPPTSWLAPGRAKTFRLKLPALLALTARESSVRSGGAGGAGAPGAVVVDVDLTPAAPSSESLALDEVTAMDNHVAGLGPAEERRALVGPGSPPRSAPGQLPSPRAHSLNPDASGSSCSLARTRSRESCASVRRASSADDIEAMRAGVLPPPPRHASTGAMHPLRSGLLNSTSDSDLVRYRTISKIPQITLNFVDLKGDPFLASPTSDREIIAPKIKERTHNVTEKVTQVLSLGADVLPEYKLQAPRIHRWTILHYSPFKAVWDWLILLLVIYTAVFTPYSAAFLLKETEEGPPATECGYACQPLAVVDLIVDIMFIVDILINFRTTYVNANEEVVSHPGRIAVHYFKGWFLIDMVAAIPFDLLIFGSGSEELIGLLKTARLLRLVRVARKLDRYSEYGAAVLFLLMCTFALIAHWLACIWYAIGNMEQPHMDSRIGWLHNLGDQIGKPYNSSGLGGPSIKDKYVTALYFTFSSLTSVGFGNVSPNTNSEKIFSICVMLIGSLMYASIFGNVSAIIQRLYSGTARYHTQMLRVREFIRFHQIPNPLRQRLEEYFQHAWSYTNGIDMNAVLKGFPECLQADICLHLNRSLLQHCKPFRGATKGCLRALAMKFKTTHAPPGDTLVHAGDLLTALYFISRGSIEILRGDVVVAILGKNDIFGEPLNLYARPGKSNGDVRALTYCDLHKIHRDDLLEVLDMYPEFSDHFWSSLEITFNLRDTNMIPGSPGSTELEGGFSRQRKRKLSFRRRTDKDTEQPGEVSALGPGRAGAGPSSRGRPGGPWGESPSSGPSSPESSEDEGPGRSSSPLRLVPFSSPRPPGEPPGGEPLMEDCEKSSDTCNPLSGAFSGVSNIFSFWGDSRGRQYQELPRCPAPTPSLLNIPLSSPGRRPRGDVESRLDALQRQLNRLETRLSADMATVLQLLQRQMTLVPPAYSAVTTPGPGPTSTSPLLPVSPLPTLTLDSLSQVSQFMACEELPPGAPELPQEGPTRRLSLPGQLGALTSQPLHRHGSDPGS

| SMILES | MIC (Streptococcus pneumoniae; [7]) | MIC (Enterococcus faecium; [8]) | MIC (Staphylococcus aureus [1]; [9]) | MIC (Pseudomonas aeruginosa; [10]) | Ratio (Staphylococcus aureus [2]) | MIC (Acinetobacter baumannii; [11]) | MIC (Escherichia coli; [12]) | IC50 [3] | MIC (Staphylococcus aureus [4]; [13]) | other results |
| --- | --- | --- | --- | --- | --- | --- | --- | --- | --- | --- |
| COc1ccc2ncc(F)c(CC(C)(O)C34CCC(NCc5ccc6c(n5)NC(=O)CO6)(CC3)CO4)c2n1 (racemic) | 0.5 µg/mL (≈ 0.955 µM) | 4 µg/mL (≈ 7.64 µM) | 0.06 µg/mL (≈ 0.115 µM) | 32 µg/mL (≈ 61.1 µM) | <4 | 2 µg/mL (≈ 3.82 µM) | 8 µg/mL (≈ 15.3 µM) | 6.1 µM | 0.06 µg/mL (≈ 0.115 µM) |  |
| COc1ccc2ncc(F)c(CC(O)(C(F)(F)F)C34CCC(NCc5ccc6c(n5)NC(=O)CO6)(CC3)CO4)c2n1 (racemic) | 4 µg/mL (≈ 6.93 µM) | 32 µg/mL (≈ 55.4 µM) | 0.5 µg/mL (≈ 0.866 µM) | 32 µg/mL (≈ 55.4 µM) |  | 32 µg/mL (≈ 55.4 µM) | 32 µg/mL (≈ 55.4 µM) |  | 0.5 µg/mL (≈ 0.866 µM) |  |
| COc1ccc2ncc(F)c(C(CO)CC34CCC(NCc5ccc6c(n5)NC(=O)CO6)(CC3)CO4)c2n1 (racemic) | 2 µg/mL (≈ 3.82 µM) | 16 µg/mL (≈ 30.6 µM) | 1 µg/mL (≈ 1.91 µM) | 32 µg/mL (≈ 61.1 µM) |  | 16 µg/mL (≈ 30.6 µM) | 32 µg/mL (≈ 61.1 µM) |  | 1 µg/mL (≈ 1.91 µM) |  |
| COc1ccc2ncc(F)c(C(C)(O)CC34CCC(NCc5ccc6c(n5)NC(=O)CO6)(CC3)CO4)c2n1 (racemic) | 4 µg/mL (≈ 7.64 µM) | 16 µg/mL (≈ 30.6 µM) | 1 µg/mL (≈ 1.91 µM) | 32 µg/mL (≈ 61.1 µM) |  | 32 µg/mL (≈ 61.1 µM) | 32 µg/mL (≈ 61.1 µM) |  | 1 µg/mL (≈ 1.91 µM) |  |
| COc1ccc2ncc(F)c(CC(OCC(=O)O)C34CCC(NCc5ccc6c(n5)NC(=O)CO6)(CC3)CO4)c2n1 (racemic) | 32 µg/mL (≈ 56.4 µM) | 32 µg/mL (≈ 56.4 µM) | 4 µg/mL (≈ 7.05 µM) | 32 µg/mL (≈ 56.4 µM) |  | 32 µg/mL (≈ 56.4 µM) | 32 µg/mL (≈ 56.4 µM) |  | 4 µg/mL (≈ 7.05 µM) |  |
| COc1ccc2ncc(F)c(C(O)CC34CCC(NCc5ccc6c(n5)NC(=O)CO6)(CC3)CO4)c2n1.Cl (single isomer, unassigned; (+)) |  |  |  |  |  |  |  |  |  | ED50 (Staphylococcus aureus [5]; Staphylococcus aureus, iv, read-out: ED50): 5.9 mg/kg; ED50 (Staphylococcus aureus [6]; Staphylococcus aureus, po, read-out: ED50): 6.4 mg/kg |
| COc1ccc2ncc(F)c(CC(N)C34CCC(NCc5ccc6c(n5)NC(=O)CO6)(CC3)CO4)c2n1 (single isomer, unassigned; (+)) | 2 µg/mL (≈ 3.93 µM) | 8 µg/mL (≈ 15.7 µM) | 0.25 µg/mL (≈ 0.492 µM) | 16 µg/mL (≈ 31.5 µM) |  | 0.25 µg/mL (≈ 0.492 µM) | 1 µg/mL (≈ 1.97 µM) |  | 0.25 µg/mL (≈ 0.492 µM) |  |
| COc1ccc2ncc(F)c(CC(N)C34CCC(NCc5ccc6c(n5)NC(=O)CO6)(CC3)CO4)c2n1.Cl (single isomer, unassigned; (+)) |  |  |  |  |  |  |  |  |  | ED50 (Staphylococcus aureus [5]): 25 mg/kg; ED50 (Staphylococcus aureus [6]): 50 mg/kg |
| COc1ccc2ncc(F)c(C(O)CC34CCC(NCc5ccc6c(n5)NC(=O)CO6)(CC3)CO4)c2n1 (single isomer, unassigned; (+)) |  | 4 µg/mL (≈ 7.85 µM) |  | 16 µg/mL (≈ 31.4 µM) | <4 | 1 µg/mL (≈ 1.96 µM) | 8 µg/mL (≈ 15.7 µM) | 4 µM |  | MIC (Streptococcus pneumoniae): 1 µg/mL (≈ 1.96 µM); MIC (Staphylococcus aureus [1]): 0.13 µg/mL (≈ 0.255 µM); MIC (Staphylococcus aureus [4]): 0.13 µg/mL (≈ 0.255 µM) |
| COc1ccc2ncc(F)c([C@H]3OC(=O)O[C@@H]3C34CCC(NCc5ccc6c(n5)NC(=O)CO6)(CC3)CO4)c2n1 (single isomer, unassigned; (+)) | 16 µg/mL (≈ 29 µM) | 16 µg/mL (≈ 29 µM) | 2 µg/mL (≈ 3.63 µM) | 16 µg/mL (≈ 29 µM) | <4 | 16 µg/mL (≈ 29 µM) | 16 µg/mL (≈ 29 µM) | 11.2 µM | 2 µg/mL (≈ 3.63 µM) |  |
| COc1ccc2ncc(F)c(C(O)CC34CCC(NCc5ccc6c(n5)NC(=O)CO6)(CC3)CO4)c2n1.Cl (single isomer, unassigned; (-)) |  |  |  |  |  |  |  |  |  | ED50 (Staphylococcus aureus [5]): 3.7 mg/kg; ED50 (Staphylococcus aureus [6]): 4.8 mg/kg |
| COc1ccc2ncc(F)c(CC(N)C34CCC(NCc5ccc6c(n5)NC(=O)CO6)(CC3)CO4)c2n1 (single isomer, unassigned; (-)) |  |  |  |  |  |  |  |  |  | MIC (Streptococcus pneumoniae): 2 µg/mL (≈ 3.93 µM); MIC (Enterococcus faecium): 4 µg/mL (≈ 7.87 µM); MIC (Staphylococcus aureus [1]): 0.13 µg/mL (≈ 0.256 µM); MIC (Pseudomonas aeruginosa): 8 µg/mL (≈ 15.7 µM); MIC (Acinetobacter baumannii): 0.25 µg/mL (≈ 0.492 µM); MIC (Escherichia coli): 1 µg/mL (≈ 1.97 µM); MIC (Staphylococcus aureus [4]): 0.13 µg/mL (≈ 0.256 µM) |
| COc1ccc2ncc(F)c([C@H](O)[C@@H](O)C34CCC(NCc5ccc6c(n5)NC(=O)CO6)(CC3)CO4)c2n1 (single isomer, unassigned; (-)) | 8 µg/mL (≈ 15.2 µM) | 16 µg/mL (≈ 30.4 µM) | 1 µg/mL (≈ 1.9 µM) | 64 µg/mL (≈ 122 µM) | <4 | 2 µg/mL (≈ 3.81 µM) | 16 µg/mL (≈ 30.4 µM) | 36.1 µM | 1 µg/mL (≈ 1.9 µM) |  |
| COc1ccc2ncc(F)c(C(O)CC34CCC(NCc5ccc6c(n5)NC(=O)CO6)(CC3)CO4)c2n1 (single isomer, unassigned; (-)) |  |  |  |  |  |  |  | 1.3 µM |  | MIC (Streptococcus pneumoniae): 0.25 µg/mL (≈ 0.491 µM); MIC (Enterococcus faecium): 2 µg/mL (≈ 3.93 µM); MIC (Staphylococcus aureus [1]): 0.03 µg/mL (≈ 0.0589 µM); MIC (Pseudomonas aeruginosa): 16 µg/mL (≈ 31.4 µM); MIC (Acinetobacter baumannii): 1 µg/mL (≈ 1.96 µM); MIC (Escherichia coli): 4 µg/mL (≈ 7.85 µM); MIC (Staphylococcus aureus [4]): 0.03 µg/mL (≈ 0.0589 µM) |
| COc1ccc2ncc(F)c([C@@H]3OC(=O)O[C@H]3C34CCC(NCc5ccc6c(n5)NC(=O)CO6)(CC3)CO4)c2n1 (single isomer, unassigned; (-)) | 2 µg/mL (≈ 3.63 µM) | 8 µg/mL (≈ 14.5 µM) | 0.25 µg/mL (≈ 0.453 µM) | 16 µg/mL (≈ 29 µM) | <4 | 16 µg/mL (≈ 29 µM) | 16 µg/mL (≈ 29 µM) | 4.9 µM | 0.25 µg/mL (≈ 0.453 µM) |  |
| COc1ccc2ncc(F)c(CC(N)C34CCC(NCc5ccc6c(n5)NC(=O)CO6)(CC3)CO4)c2n1.Cl (stereo in doubt) |  |  |  |  |  |  |  |  |  | ED50 (Staphylococcus aureus [5]): 11 mg/kg; ED50 (Staphylococcus aureus [6]): 21 mg/kg |
